Here are results for 14 compounds from PubChem BioAssay (NCI).

Molecules are shown by their SMILES.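 How tested: cells in 96-well plates exposed to compound for 48 hours at five concentrations. Abbreviation: GI50, concentration required for 50% inhibition of growth. The concentration for full growth arrest is given as TGI.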

Among the test systems are HOP-62 NSCLC; HT29 colon; RXF 393 renal; SR leukemia; OVCAR-8 ovarian; HCT-116 colon; MCF7 breast; TK-10 renal; SK-MEL-5 melanoma.
Holding throughout (experiment): growth of human tumour cells (NCI), 48 h

`CCOC(=O)c1cccc(N=NNc2cccc(C(=O)OCC)c2)c1`: the TGI is 32.4 µM in the experiment on HOP-62 NSCLC; over 100 µM in the experiment with HT29 colon; 62.9 µM with RXF 393 renal; over 100 µM in the experiment on SR leukemia; 91.8 µM with OVCAR-8 ovarian; over 100 µM with HCT-116 colon. Moreover, the TGI with MCF7 breast, in the experiment on TK-10 renal and in the experiment with SK-MEL-5 melanoma was over 100 µM in each case.
Take `O=C1c2ccccc2CC12Cc1ccc3c(c1C2=O)CCCC3` (stereo unspecified): the TGI with HOP-62 NSCLC was over 100 µM; with HT29 colon, over 100 µM; in the experiment with RXF 393 renal, 23.9 µM; in the experiment on SR leukemia, 6.56 µM; in the experiment with OVCAR-8 ovarian, over 100 µM; in the experiment with HCT-116 colon, over 100 µM. Moreover, the TGI in the experiment with MCF7 breast, in the experiment with TK-10 renal and in the experiment on SK-MEL-5 melanoma was over 100 µM each time.
As to `C=CCSC1=N/C(=C\c2ccc(C)cc2)C(=O)N1CC=C`, the TGI with HOP-62 NSCLC is over 100 µM; in the experiment on HT29 colon, 34.1 µM; with RXF 393 renal, 43.2 µM; in the experiment with SR leukemia it was 29.4 µM; in the experiment with OVCAR-8 ovarian it was over 100 µM; with HCT-116 colon it was 67.4 µM. The TGI in the experiment with MCF7 breast was 55.5 µM; in the experiment on TK-10 renal it was over 100 µM; in the experiment on SK-MEL-5 melanoma it was 27.3 µM.
With `CCOC(=O)c1c(NS(=O)(=O)c2ccccc2)sc2c1CCCC2`, the TGI in the experiment with HOP-62 NSCLC, in the experiment on HT29 colon, with RXF 393 renal, with SR leukemia, with OVCAR-8 ovarian and in the experiment with HCT-116 colon was over 100 µM each time. The TGI in the experiment on MCF7 breast, with TK-10 renal and in the experiment with SK-MEL-5 melanoma was over 100 µM each time.
In the case of `CC(C)=CC(=O)c1[nH]c2ccccc2c1CC(=O)NCCc1cnc[nH]1`, the TGI with HT29 colon, in the experiment with RXF 393 renal, in the experiment with SR leukemia, in the experiment on OVCAR-8 ovarian, with HCT-116 colon and in the experiment with MCF7 breast was over 100 µM each time. The TGI with TK-10 renal and in the experiment with SK-MEL-5 melanoma was over 100 µM each time.
Turning to `O=C(c1ccccc1)c1nn(-c2cccc(Cl)c2)c2nc3nc(-c4ccccc4)cc(=O)n3nc12`, the GI50 with HOP-62 NSCLC, in the experiment with HT29 colon, in the experiment with RXF 393 renal, with SR leukemia, in the experiment with OVCAR-8 ovarian and in the experiment on HCT-116 colon was over 25 µM each time. In addition, the GI50 in the experiment with MCF7 breast, in the experiment with TK-10 renal and in the experiment with SK-MEL-5 melanoma was over 25 µM throughout. Further, the TGI in the experiment with HOP-62 NSCLC, with HT29 colon, with RXF 393 renal, in the experiment on SR leukemia, in the experiment on OVCAR-8 ovarian and with HCT-116 colon was over 25 µM each time. Moreover, the TGI in the experiment on MCF7 breast, in the experiment on TK-10 renal and with SK-MEL-5 melanoma was over 25 µM each time.
`NS(=O)(=O)c1ccc(Nc2c3ccccc3nc3c(C(=O)NC(CO)(CO)CO)cccc23)cc1`: the TGI with HOP-62 NSCLC is 0.433 µM; with HT29 colon, 0.45 µM; in the experiment with RXF 393 renal, 0.386 µM; in the experiment with SR leukemia, over 1 µM; in the experiment with OVCAR-8 ovarian, 0.595 µM; in the experiment on HCT-116 colon, 0.327 µM. The TGI is 0.106 µM with MCF7 breast, 0.311 µM in the experiment on TK-10 renal and 0.229 µM in the experiment on SK-MEL-5 melanoma.
For the compound `Cc1cccc(NC(=S)NNC(=O)c2cc(-c3ccccc3)nc3ccccc23)c1`, the TGI in the experiment with HOP-62 NSCLC was 99.3 µM; with HT29 colon it was over 100 µM; in the experiment on RXF 393 renal, 68.3 µM; in the experiment on SR leukemia, 41.1 µM; in the experiment on OVCAR-8 ovarian it was over 100 µM; in the experiment on HCT-116 colon it was 48.4 µM. The values for the TGI with MCF7 breast, in the experiment with TK-10 renal and in the experiment on SK-MEL-5 melanoma were 57.2 µM, over 100 µM and 39 µM, respectively.
Regarding `CSC(SC)=C(C#N)C(=O)Nc1ccc(Cl)cc1`, the TGI is over 100 µM in the experiment with HT29 colon; 54.9 µM with RXF 393 renal; over 100 µM in the experiment with SR leukemia; over 100 µM in the experiment with OVCAR-8 ovarian; over 100 µM in the experiment with HCT-116 colon; over 100 µM in the experiment with MCF7 breast. Also, the figures for the TGI with TK-10 renal and with SK-MEL-5 melanoma were 72.6 µM and over 100 µM, respectively.
For `CCC(CCCC[C@H]1CC[C@@H]2CC(=O)C[C@H]12)OC` (stereo partly specified), the TGI in the experiment on HOP-62 NSCLC, with HT29 colon, in the experiment with RXF 393 renal, in the experiment on SR leukemia, in the experiment with OVCAR-8 ovarian and in the experiment on HCT-116 colon was over 100 µM throughout. For the same compound, the TGI with MCF7 breast, in the experiment on TK-10 renal and in the experiment with SK-MEL-5 melanoma was over 100 µM each time.
For `Cc1ccc(NC(c2ccccc2)P(=O)(c2ccccc2)c2ccccc2)cc1` (stereo unspecified), the TGI with HOP-62 NSCLC, with HT29 colon, in the experiment with RXF 393 renal, in the experiment on SR leukemia, with OVCAR-8 ovarian and in the experiment on HCT-116 colon was over 100 µM in each case. Further, the TGI with MCF7 breast, in the experiment on TK-10 renal and in the experiment with SK-MEL-5 melanoma was over 100 µM throughout.
As for `O=c1[nH]nc(-c2cccc([N+](=O)[O-])c2)[nH]1`, the TGI with HOP-62 NSCLC, in the experiment with HT29 colon, in the experiment on RXF 393 renal, with SR leukemia, with OVCAR-8 ovarian and with HCT-116 colon was over 100 µM throughout. In addition, the TGI in the experiment with MCF7 breast and in the experiment with TK-10 renal was over 100 µM in each case.
`O=C1c2cccc3cc([N+](=O)[O-])cc(c23)C(=O)N1c1ccc(OCCN2CCCC2)cc1`: the TGI was 76.4 µM with HOP-62 NSCLC; 28.3 µM with HT29 colon; 37 µM in the experiment with RXF 393 renal; 73.2 µM in the experiment with SR leukemia; over 100 µM in the experiment on OVCAR-8 ovarian; 46.7 µM in the experiment with HCT-116 colon. For the same compound, the figures for the TGI in the experiment on MCF7 breast, with TK-10 renal and in the experiment with SK-MEL-5 melanoma were 38.3 µM, 81.3 µM and 30.1 µM, respectively.
Take `N#CCCN(C(=O)Nc1ccc(NC(=O)N(CCC#N)c2ccccc2)cc1)c1ccccc1`: the TGI with HOP-62 NSCLC, in the experiment on HT29 colon, in the experiment with RXF 393 renal, in the experiment on SR leukemia, in the experiment on OVCAR-8 ovarian and with HCT-116 colon was over 100 µM each time. Further, the TGI in the experiment on MCF7 breast and in the experiment on SK-MEL-5 melanoma was over 100 µM throughout.
